Among the data in patent US9617271B2, “Triazolo compounds” (Hoffmann-La Roche Inc., priority 2012, dated 2017) are IC50 values, retold here.

pIC50: −log10 of the molar value.

The target of the assay is human PDE10A (Homo sapiens (Human), UniProt Q9Y233). As to the kind of experiment: human PDE10A full length assay ([3H]-cGMP SPA). The note with it: human PDE10A full length enzyme, 50 nM cGMP + 50 nM [3H]-cGMP, 20 minutes at room temperature; read-out: PDE10A inhibition IC50. The format is biochemical. As to the method: The human PDE10A full length assay was performed in 96-well micro titer plates. The reaction mixture of 50 μl contained 20 mM HEPES pH=7.5/10 mM MgCl2/0.05 mg/ml BSA (Sigma cat. #A-7906), 50 nM cGMP (Sigma, cat. #G6129) and 50 nM [3H]-cGMP (GE Healthcare, cat. #TRK392 S.A. 13.2 Ci/mmol), 3.75 ng/well PDE10A enzyme (Enzo Life Science, Lausen, Switzerland cat #SE-534) with or without a specific test compound. A range of concentrations of the potential inhibitor was used to generate data for calculating the concentration of inhibitor resulting in 50% of the effect (e.g. IC50, the concentration of the competitor inhibiting PDE10A activity by 50%). Non-specific activity was tested without the enzyme. The reaction was initiated by the addition of the substrate solution (cGMP and [3H]-cGMP) and allowed to progress for 20 minutes at room temperature. The reaction was terminated by adding 25 μl of YSi-SPA scintillation beads (GE Healthcare, cat. #RPNQ0150) in 18 mM zinc sulphate solution (stop reagent). After 1 h under shaking, the plate was centrifuged one minute at 170 g to allow beads to settle. Afterwards, radioactive counts were measured on a Perkin Elmer TopCount Scintillation plate reader.
Chain of human PDE10A (Q9Y233 other isoform, or with tags, fused parts or gaps): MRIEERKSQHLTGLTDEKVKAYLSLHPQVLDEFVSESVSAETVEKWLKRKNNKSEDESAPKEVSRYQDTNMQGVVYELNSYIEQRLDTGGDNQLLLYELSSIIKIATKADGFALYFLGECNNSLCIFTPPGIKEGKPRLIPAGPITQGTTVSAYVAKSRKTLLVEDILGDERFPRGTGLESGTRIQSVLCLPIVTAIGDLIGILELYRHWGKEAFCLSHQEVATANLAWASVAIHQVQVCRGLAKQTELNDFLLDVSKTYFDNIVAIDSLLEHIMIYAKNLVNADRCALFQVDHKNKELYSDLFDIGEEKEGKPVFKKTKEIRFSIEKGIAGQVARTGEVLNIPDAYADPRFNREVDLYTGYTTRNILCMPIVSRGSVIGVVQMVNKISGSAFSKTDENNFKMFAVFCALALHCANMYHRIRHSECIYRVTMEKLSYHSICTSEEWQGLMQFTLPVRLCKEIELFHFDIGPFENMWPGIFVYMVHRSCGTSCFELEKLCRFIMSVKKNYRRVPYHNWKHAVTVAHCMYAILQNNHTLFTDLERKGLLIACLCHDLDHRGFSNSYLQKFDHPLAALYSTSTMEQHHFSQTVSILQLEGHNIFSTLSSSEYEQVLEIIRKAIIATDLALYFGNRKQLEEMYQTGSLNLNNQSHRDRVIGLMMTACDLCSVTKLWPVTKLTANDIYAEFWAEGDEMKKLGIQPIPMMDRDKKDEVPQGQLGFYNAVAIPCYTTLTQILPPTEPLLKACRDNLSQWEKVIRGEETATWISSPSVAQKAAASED

Turning to `Cc1cn2nc(C#Cc3nc(N4CCCC4)nn3C)ccc2n1` [Example 67, 2-Methyl-6-((1-methyl-3-(pyrrolidin-1-yl)-1H-1,2,4-triazol-5-yl)ethynyl)imidazo[1,2-b]pyridazine], the pIC50 (commonly the IC50 on a negative log10 scale, so that one unit is a factor of ten) is 7.99.
As to `Cc1c(C(F)(F)F)nc2c(OCC(F)(F)F)cc(C#Cc3nc(N4CCCC4)nn3C)nn12` [Example 62, 3-Methyl-6-((1-methyl-3-(pyrrolidin-1-yl)-1H-1,2,4-triazol-5-yl)ethynyl)-8-(2,2,2-trifluoroethoxy)-2-(trifluoromethyl)imidazo[1,2-b]pyridazine], the pIC50 is 8.52.
For `Cc1cn2nc(CCc3nc(N4CCCC4)nn3C)ccc2n1` [Example 68, 2-Methyl-6-(2-(1-methyl-3-(pyrrolidin-1-yl)-1H-1,2,4-triazol-5-yl)ethyl)imidazo[1,2-b]pyridazine], the pIC50 is 6.84.
Consider `Cc1nc2cc(C3CCCCC3)c(CCc3nc(N4CCCC4)nn3C)nn2c1C` [Example 58, 7-Cyclohexyl-2,3-dimethyl-6-(2-(1-methyl-3-(pyrrolidin-1-yl)-1H-1,2,4-triazol-5-yl)ethyl)imidazo[1,2-b]pyridazine], for which the pIC50 is 7.70.
Regarding `Cn1nc(N2CCCC2)nc1CCc1ccc2nc(Cl)cn2n1` [Example 37, 2-Chloro-6-(2-(1-methyl-3-(pyrrolidin-1-yl)-1H-1,2,4-triazol-5-yl)ethyl)imidazo[1,2-b]pyridazine], the negative-log IC50 (pIC50) was 6.47.
The result for `Cc1c(Cl)nc2ccc(C#Cc3nc(N4CCCC4)nn3C)nn12` [Example 38, 2-Chloro-3-methyl-6-((1-methyl-3-(pyrrolidin-1-yl)-1H-1,2,4-triazol-5-yl)ethynyl)-imidazo[1,2-b]pyridazine] reads 8.88; that for `COc1nc(CCc2nc(N3CCCC3)nn2C)nn2c(C)c(C)nc12` [Example 13, 4-Methoxy-6,7-dimethyl-2-(2-(1-methyl-3-(pyrrolidin-1-yl)-1H-1,2,4-triazol-5-yl)ethyl)imidazo[1,2-f][1,2,4]triazine], 8.70; that for `CCN(CC)c1nc(CCc2nc(N3CCCC3)nn2C)nn2c(C)c(C)nc12` [Example 35, N,N-Diethyl-6,7-dimethyl-2-(2-(1-methyl-3-(pyrrolidin-1-yl)-1H-1,2,4-triazol-5-yl)ethyl)imidazo[1,2-f][1,2,4]triazin-4-amine], 8.85.
For `Cc1nc2cc(C(C)C)c(C#Cc3nc(N4CCCC4)nn3C)nn2c1C` [Example 50, 7-Isopropyl-2,3-dimethyl-6-((1-methyl-3-(pyrrolidin-1-yl)-1H-1,2,4-triazol-5-yl)ethynyl)imidazo[1,2-b]pyridazine], the pIC50 is 8.59.
Turning to `Cc1nc2c(C3CC3)cc(C#Cc3nc(N4CCCC4)nn3C)nn2c1C` [Example 46, 8-Cyclopropyl-2,3-dimethyl-6-((1-methyl-3-(pyrrolidin-1-yl)-1H-1,2,4-triazol-5-yl)ethynyl)imidazo[1,2-b]pyridazine], the pIC50 was 9.00.
The result for `Cc1nc2c(N3CCCC3)cc(CCc3nc(N4CCCC4)nn3C)nn2c1C` [Example 19, 2,3-Dimethyl-6-(2-(1-methyl-3-(pyrrolidin-1-yl)-1H-1,2,4-triazol-5-yl)ethyl)-8-(pyrro-lidin-1-yl)imidazo[1,2-b]pyridazine] reads 8.30; that for `Cc1nc2ccc(CCc3nc(N4CCCC4)nn3C)nn2c1C` [Example 2, 2,3-Dimethyl-6-(2-(1-methyl-3-(pyrrolidin-1-yl)-1H-1,2,4-triazol-5-yl)ethyl)-imidazo[1,2-b]pyridazine], 7.96.
With `Cc1cc(CCc2nc(N3CCCC3)nn2C)nn2c(C)c(C(F)(F)F)nc12` [Example 55, 3,8-Dimethyl-6-(2-(1-methyl-3-(pyrrolidin-1-yl)-1H-1,2,4-triazol-5-yl)ethyl)-2-(trifluoro-methyl)imidazo[1,2-b]pyridazine], the negative logarithm of the IC50 (pIC50) is 7.77.
Regarding `Cc1nc2ccc(CCc3nc(N4CCCC4)nn3C)nn2c1Cl` [Example 66, 3-Chloro-2-methyl-6-(2-(1-methyl-3-(pyrrolidin-1-yl)-1H-1,2,4-triazol-5-yl)ethyl)imidazo[1,2-b]pyridazine], the pIC50 is 7.84.
With “N-Ethyl-6,7-dimethyl-2-(2-(1-methyl-3-(pyrrolidin-1-yl)-1H-1,2,4-triazol-5-yl)ethyl)-imidazo[1,2-f][1,2,4]triazin-4-amine [Example 32]”, the pIC50 is 8.22.
For `Cc1c(C(F)(F)F)nc2c(OCC(F)(F)F)cc(CCc3nc(N4CCCC4)nn3C)nn12` [Example 63, 3-Methyl-6-(2-(1-methyl-3-(pyrrolidin-1-yl)-1H-1,2,4-triazol-5-yl)ethyl)-8-(2,2,2-trifluoroethoxy)-2-(trifluoromethyl)imidazo[1,2-b]pyridazine], the pIC50 is 8.03.
Then `Cc1cc2nc(C)c(C)n2nc1C#Cc1nc(N2CCCC2)nn1C` [Example 17, 2,3,7-Trimethyl-6-((1-methyl-3-(pyrrolidin-1-yl)-1H-1,2,4-triazol-5-yl)ethynyl)imidazo[1,2-b]pyridazine], with 9.00; and `Cc1nc2c(Cl)nc(CCc3nc(N4CCCC4)n(C)n3)nn2c1C` [Example 20, 4-Chloro-6,7-dimethyl-2-(2-(1-methyl-5-(pyrrolidin-1-yl)-1H-1,2,4-triazol-3-yl)ethyl)-imidazo[1,2-f][1,2,4]triazine], with 7.96.
For the molecule `COc1cc2nc(C)c(C)n2nc1C#Cc1nc(N2CCCC2)nn1C` [Example 60, 7-Methoxy-2,3-dimethyl-6-((1-methyl-3-(pyrrolidin-1-yl)-1H-1,2,4-triazol-5-yl)ethynyl)imidazo[1,2-b]pyridazine], the pIC50 was 8.57.
Then `Cc1c(C(F)(F)F)nc2ccc(CCc3nc(N4CCCC4)nn3C)nn12` [Example 1, 3-Methyl-6-(2-(1-methyl-3-(pyrrolidin-1-yl)-1H-1,2,4-triazol-5-yl)ethyl)-2-(trifluoro-methyl)imidazo[1,2-b]pyridazine], with 7.92.
As for `Cc1cc2nc(C)c(C)n2nc1CCc1nc(N2CCCC2)nn1C` [Example 18, 2,3,7-Trimethyl-6-(2-(1-methyl-3-(pyrrolidin-1-yl)-1H-1,2,4-triazol-5-yl)ethyl)imidazo[1,2-b]pyridazine], the pIC50 was 6.71.
On to `Cc1nc2cc(C3CCC3)c(C#Cc3nc(N4CCCC4)nn3C)nn2c1C` [Example 51, 7-Cyclobutyl-2,3-dimethyl-6-((1-methyl-3-(pyrrolidin-1-yl)-1H-1,2,4-triazol-5-yl)ethynyl)imidazo[1,2-b]pyridazine], for which the pIC50 is 9.22.
For the molecule `Cc1nc2c(NC(C)C)nc(CCc3nc(N4CCCC4)nn3C)nn2c1C` [Example 31, N-Isopropyl-6,7-dimethyl-2-(2-(1-methyl-3-(pyrrolidin-1-yl)-1H-1,2,4-triazol-5-yl)ethyl)imidazo[1,2-f][1,2,4]triazin-4-amine], the pIC50 was 8.52.
Take `Cc1c(C(F)F)nc2ccc(CCc3nc(N4CCCC4)nn3C)nn12` [Example 8, 2-(Difluoromethyl)-3-methyl-6-(2-(1-methyl-3-(pyrrolidin-1-yl)-1H-1,2,4-triazol-5-yl)ethyl)imidazo[1,2-b]pyridazine]: the pIC50 is 8.10.
With `Cc1nc2ccc(OCc3nc(N4CCCC4)nn3C)nn2c1C` [Example 30, 2,3-Dimethyl-6-((1-methyl-3-(pyrrolidin-1-yl)-1H-1,2,4-triazol-5-yl)methoxy)imidazo[1,2-b]pyridazine], the pIC50 is 7.01.
Turning to `Cc1c(C#N)nc2ccc(CCc3nc(N4CCCC4)nn3C)nn12` [Example 5, 3-Methyl-6-[2-(2-methyl-5-pyrrolidin-1-yl-2H-[1,2,4]triazol-3-yl)-ethyl]-imidazo[1,2-b]pyridazine-2-carbonitrile], the pIC50 was 7.68.
With `Cc1c(C(F)(F)F)nc2ccc(C#Cc3nc(N4CCCC4)n(C)n3)nn12` [Example 4, 3-Methyl-6-((1-methyl-5-(pyrrolidin-1-yl)-1H-1,2,4-triazol-3-yl)ethynyl)-2-(trifluoromethyl)imidazo[1,2-b]pyridazine], the negative-log IC50 (pIC50) is 8.40.
Then `Cc1nn2ccc(CCc3nc(N4CCCC4)nn3C)nc2c1C` [Example 53, 2,3-dimethyl-5-(2-(1-methyl-3-(pyrrolidin-1-yl)-1H-1,2,4-triazol-5-yl)ethyl)pyrazolo[1,5-a]pyrimidine], with 8.68; and `Cc1nc2c(C3CCC3)cc(C#Cc3nc(N4CCCC4)nn3C)nn2c1C` [Example 47, 8-Cyclobutyl-2,3-dimethyl-6-((1-methyl-3-(pyrrolidin-1-yl)-1H-1,2,4-triazol-5-yl)ethynyl)imidazo[1,2-b]pyridazine], with 9.05.
The result for `Cc1nc2c(C3CC3)cc(CCc3nc(N4CCCC4)nn3C)nn2c1C` [Example 49, 8-Cyclopropyl-2,3-dimethyl-6-(2-(1-methyl-3-(pyrrolidin-1-yl)-1H-1,2,4-triazol-5-yl)ethyl)imidazo[1,2-b]pyridazine] reads 8.54; that for `Cc1c(C(F)F)nc2ccc(C#Cc3nc(N4CCCC4)nn3C)nn12` [Example 7, 2-(Difluoromethyl)-3-methyl-6-((1-methyl-3-(pyrrolidin-1-yl)-1H-1,2,4-triazol-5-yl)ethynyl)imidazo[1,2-b]pyridazine], 8.30.
